Measurements: PubChem BioAssay (NCI)
Where “and” joins values, the source holds several entries; their conditions need not be identical. Equal entries are not always repeated.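 In this assay, cells in 96-well plates receive the compound at five concentrations for 48 hours. Endpoints are linearly interpolated between the surrounding concentrations. GI50 = concentration required for 50% inhibition of growth. TGI: concentration producing complete growth inhibition.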

Assays:
Assay in all cases: NCI anticancer screen, dose series, 48 h
[1] = tested on: ACHN renal
[2] = tested on: MOLT-4 leukemia
[3] = tested on: CCRF-CEM leukemia
[4] = tested on: NCI-H226 lung
[5] = tested on: HCT-15 colon
[6] = tested on: HOP-62 NSCLC
[7] = tested on: IGROV1 ovarian
[8] = tested on: RXF 393 renal
[9] = tested on: CAKI-1 renal
[10] = tested on: U251 CNS

| SMILES | GI50 [1] [µM] | TGI [1] | GI50 [2] [µM] | TGI [2] | GI50 [3] [µM] | TGI [3] [µM] | GI50 [4] [µM] | TGI [4] [µM] | GI50 [5] [µM] | TGI [5] | GI50 [6] | TGI [6] | GI50 [7] | TGI [7] | GI50 [8] | TGI [8] | GI50 [9] [µM] | TGI [9] | GI50 [10] | TGI [10] [µM] |
| --- | --- | --- | --- | --- | --- | --- | --- | --- | --- | --- | --- | --- | --- | --- | --- | --- | --- | --- | --- | --- |
| COc1cc(/C=C\c2cc(OC)c(OC)c(OC)c2)cc(NS(=O)(=O)c2ccc(Cl)cc2)c1OC | 0.586 | 29.9 µM | 0.672 | 31.9 µM | 0.388 | > 100 | 13.5 | > 100 | 0.399 | > 100 µM | 0.414 µM | > 100 µM | 0.904 µM | > 100 µM | 0.272 µM | 1.24 µM | 0.374 | 50 µM | 0.461 µM | 20.7 |
| COc1cccc(C2C(C#N)=C(N)Oc3cc4c(cc32)OCO4)c1 (stereo unspecified) | 2.26 | > 100 µM | 0.0745 | 22.6 µM | 0.0362 | 19.9 | 0.0455 | 2.43 | 0.0525 | > 43.5 µM | 0.0501 µM | 27.2 µM | 0.305 µM | 30.8 µM | 0.029 µM | 0.0927 µM | 0.0409 | 42.6 µM | 0.0449 µM | 12.1 |
| COc1ccc(/C(C)=C(\c2ccc(Cl)cc2)c2ccc(OCCN3CCCCCC3)cc2)cc1F | 5.19 | > 16.7 µM | 3.91 | 11.8 µM | 4.51 | > 16.7 | 5.47 | > 16.7 | 0.668 | 2.85 µM | 3.33 µM | 6.72 µM | 3.07 µM | 9.34 µM | 2.55 µM | 5.17 µM | 3.37 | 7.7 µM | 2.79 µM | 7.59 |
| COC(=O)c1sc(=NC(=S)N2CCCCC2)sc1C(=O)OC |  | > 100 µM |  | > 100 µM |  | > 100 |  | > 100 |  | > 100 µM |  | > 100 µM |  | > 100 µM |  | > 100 µM |  | > 100 µM |  | > 100 |
| COc1cc(OC)cc(-c2ccc(-c3ccc(C(=N)N)cn3)s2)c1 | 1.81 | 3.2 µM | 2.55 | 6.39 µM | 2.71 | 7.29 | 10.1 | 27.8 | 1.81 | 3.49 µM | 1.8 µM | 3.67 µM | 1.9 µM | 3.73 µM | 1.83 µM | 3.34 µM | 1.73 | 3.2 µM | 1.8 µM | 3.49 |
| CC1=C(CNO)C2=C(C)C3(CC3)[C@@](C)(O)C(=O)C2=C1 | 2.25 | 7.6 µM | 3.72 | > 100 µM | 6.6 | 60.6 | 1.83 | 4.79 | 1.71 | 4.99 µM | 0.61 µM | 4.57 µM | 0.898 µM | 7 µM | 0.726 µM | 2.41 µM | 1.66 | 7.07 µM | 2.39 µM | > 100 |
| NC(N)=N/N=C(/c1ccccc1)c1ccccc1F | 4.49 | 20 µM | 5.57 | > 100 µM | 5.08 | > 100 | 5.35 | 22 | 1.98 | 13.8 µM | 4.62 µM | 18.2 µM | 2.89 µM | > 50 µM | 3 µM | 13.9 µM | 4.26 | 31.4 µM | 2.64 µM | 13.3 |
| O=C(OC[C@@H]1CO1)c1cccc2c(=O)c3ccccc3[nH]c12 | 0.107 | 0.305 µM | 0.0531 |  | 0.0896 | > 100 | 0.301 | 1.48 | 0.307 | 3.36 µM | 0.357 µM | 3.45 µM | 0.329 µM | 1.83 µM | 0.207 µM | 0.515 µM | 0.2 | 0.687 µM | 0.279 µM | 3.69 |
| COc1ccc(/C=C\c2cc(OC)c(OC)c(OC)c2)c(NS(=O)(=O)c2ccc(C(C)(C)C)cc2)c1O | 0.452 | 23.5 µM | 0.202 | 3.94 µM | 0.468 | 35.8 | 0.546 | 13.5 | 0.234 | 16.2 µM | 10.1 µM | 70.3 µM | 0.986 µM | 35.8 µM | 0.0379 µM | 16 µM | 0.0674 | 18.7 µM | 0.597 µM | 21.8 |
| CC(=O)OCC1OC(n2c(=S)n(-c3ccccc3)c(=O)c3cc(Br)cc(Br)c32)C(OC(C)=O)C(OC(C)=O)C1OC(C)=O (stereo unspecified) |  | > 100 µM | 36.8 | > 100 µM |  | > 100 |  | > 100 |  | > 100 µM | 19.5 µM and > 100 µM | 54.8 µM and > 100 µM | 35.8 µM and > 100 µM | > 100 µM | 19.4 µM and 64.2 µM | 76.3 µM and > 100 µM |  | > 100 µM | 20 µM and 91.9 µM | > 100 |
| COC(=O)[C@H](Cc1cn(C)cn1)NC(=O)[C@@H](NC(=O)Nc1cc(C(F)(F)F)cc(C(F)(F)F)c1)C(C)C | > 10 | > 10 µM | 3.16 | > 10 µM | 3.15 | > 10 | > 10 | > 10 | > 10 | > 10 µM | 2.91 µM | 9.07 µM | 6.15 µM | > 10 µM | 1.96 µM | 4.08 µM | > 10 | > 10 µM | > 10 µM | > 10 |
| CCN1CCN(c2nc(NNC(=O)c3ccccc3)nc(N3CCN(C(c4ccccc4)c4ccccc4)CC3)n2)CC1 | 2.53 | 6.56 µM | 2.01 | 5.42 µM | 2.05 | 6.36 | 11.9 | 29.5 | 2.3 | 5.84 µM | 12.7 µM | 31.8 µM | 3.09 µM | 12.8 µM | 2.56 µM | 7.57 µM | 2.21 | 5.76 µM | 3.05 µM | 10.5 |
| COc1ccc(Cc2nc3cc(OC)c(OC)cc3c(=O)[nH]2)cc1 | 9.14 | > 100 µM | 5.36 | > 59.6 µM | 6.53 | > 100 | 9.2 | > 100 | 3.57 | > 100 µM | 8.69 µM | > 81.5 µM | 4.61 µM | > 67.2 µM | 3.95 µM | 24.3 µM | 6.64 | > 93.4 µM | 10.5 µM | > 100 |
| COc1cc(CCc2ccc(OC(C)=O)cc2)cc(OC)c1OC |  | > 100 µM |  | > 100 µM |  | > 100 |  | > 100 |  | > 100 µM |  | > 100 µM |  | > 100 µM |  | > 100 µM |  | > 100 µM |  | > 100 |
| CC1OC(OC2C(O[C@H]3CC[C@@]4(C)C(=CC[C@H]5[C@@H]6C[C@@H]7O[C@]8(CC[C@@H](C)CO8)[C@@H](C)[C@@H]7[C@@]6(C)CC[C@@H]54)C3)OC(CO)C(OC3OC(CO)C(O)C3O)C2O)C(O)C(O)C1O (stereo partly specified) |  | 1.58 µM and 2.12 µM | 0.187 | 1.8 µM and 0.412 µM |  | 0.413 |  | 1.73 | 0.621 | 1.99 µM and 1.94 µM | 1.13 µM | 1.84 µM and 2.34 µM | 0.45 µM | 1.61 µM and 1.62 µM | 0.294 µM | 1.83 µM and 0.962 µM | 0.602 | 1.76 µM and 1.86 µM | 0.325 µM | 1.44 |
| COc1ccc(/C=C/C(C)=N/OCC(=O)Nc2ccc(Cl)cc2)cc1 | 1.94 | > 38.9 µM | 2.23 | 9.97 µM | 2.41 | 29.9 | 3.38 | 26.7 | 2.14 | 15.6 µM | 5.06 µM | 27.5 µM | 3.42 µM | 51.6 µM | 4.09 µM | 21.4 µM | 2.29 | 27 µM | 2.94 µM | 13.7 |
| O=c1nc2[nH]c3c(-c4n[nH]c(=O)[nH]c4=O)cccc3c2n[nH]1 | > 100 | > 100 µM | > 100 | > 100 µM | > 100 | > 100 | > 100 | > 100 | > 100 | > 100 µM | > 100 µM | > 100 µM | > 100 µM | > 100 µM | > 100 µM | > 100 µM | > 100 | > 100 µM | > 100 µM | > 100 |
| C=C1CC/C=C(\C)CC[C@H](C(=C)C)[C@@H](O)/C=C(/CO)CCC1O (stereo partly specified) | > 100 | > 100 µM | 24 | 53.6 µM | 24 | 48.6 | > 100 | > 100 | > 100 | > 100 µM | > 100 µM | > 100 µM | 44.9 µM | > 100 µM | 89.9 µM | > 100 µM | 81.4 | > 100 µM | 85.2 µM | > 100 |
| Nc1nc(=S)[nH]c(C(=O)Nc2nccs2)c1-c1ccccc1 |  | > 100 µM |  | > 100 µM |  | > 100 |  | > 100 |  | > 100 µM |  | > 100 µM |  | > 100 µM |  | > 100 µM |  | > 100 µM |  | > 100 |
| COc1c(O)c2c3c(c1OC)-c1ccccc1CC3N(S(=O)(=O)c1ccc(C)cc1)CC2 (stereo unspecified) | 2.91 | > 50 µM | 2.14 | 10.9 µM | 1.34 | 4.94 | 11.4 | > 50 | 2.05 | > 50 µM | 2.77 µM | > 50 µM | 2.13 µM | > 50 µM | 1.34 µM | 4.12 µM | 2.12 | > 50 µM | 1.69 µM | > 50 |
